Source: US20230173018A1, “CASPOFUNGIN DERIVATIVES AND ASSAYS FOR EVALUATING ANTIFUNGAL TREATMENT EFFICACY” (priority 2020, published 2023)
Where two headings read alike, the source gives them in different places.

Legend:
Assay type in all cases: cell-based
C. albicans CG72 = assay: microbe, parasite or virus in culture
From the text: (§1) The antifungal activities of compounds 1a, 1 and 2 (collectively: caspofungin derivatives) were compared to that of caspofungin and CSF-BOD using a panel of 49 C. albicans and C. glabrata strains (Tables 1 and 2). The panel included ATCC strains and clinical isolates as well a collection of caspofungin-responsive strains and their corresponding isogenic caspofungin-resistant derivatives, constructed by introducing point mutations within and near the defined hotspots in the FKS1 and/or FKS2 genes of the GS complex. Minimal inhibitory concentration (MIC) values for all strains were determined using the broth double dilution method and are summarized in FIG. 2 and Table 2. […] The clinical breakpoints (threshold) for caspofungin-resistance in C. albicans and C. glabrata are 1 μg/mL and 0.5 μg/mL, respectively.

[1] = test system: C. albicans DPL1015 (DP-A15); assay: microbe, parasite or virus in culture; settings: strain no. 2, DPL1015 (DP-A15), parental SC5314, FKS1 mutant HS1-S645S/P
From the text: as §1

[2] = test system: C. albicans DPL1016 (DP-A15-10); assay: microbe, parasite or virus in culture; settings: strain no. 3, DPL1016 (DP-A15-10), parental SC5314, FKS1 mutant HS1-S645P
From the text: as §1

C. albicans SN95 = assay: microbe, parasite or virus in culture
From the text: as §1

[3] = test system: C. albicans T-2068 (DP-C42); assay: microbe, parasite or virus in culture; settings: strain no. 4, T-2068 (DP-C42), parental SC5314, FKS1 HS1-F641S mutation
From the text: as §1

[4] = test system: C. albicans T-2069 (DP-85); assay: microbe, parasite or virus in culture; settings: strain no. 14, T-2069 (DP-85), clinical isolate, FKS1 HS1-S645F mutation
From the text: as §1

[5] = test system: C. albicans T-2074 (DP-122); assay: microbe, parasite or virus in culture; settings: strain no. 12, T-2074 (DP-122), clinical isolate, FKS1 HS1-P649H mutation
From the text: as §1

[6] = test system: C. albicans T-2076 (DP-194); assay: microbe, parasite or virus in culture; settings: strain no. 13, T-2076 (DP-194), clinical isolate, FKS1 HS1-S645F, HS2-R1361R/H mutation
From the text: as §1

[7] = test system: C. albicans T-2077 (DP-205); assay: microbe, parasite or virus in culture; settings: strain no. 15, T-2077 (DP-205), clinical isolate, FKS1 HS1-S645P mutation
From the text: as §1

C. glabrata CST78 = assay: microbe, parasite or virus in culture
From the text: as §1

C. glabrata DPL1086 = assay: microbe, parasite or virus in culture; settings: strain no. 17, DPL1086, parental ATCC 90030, FKS1 mutant HS1-S629P
From the text: as §1

[8] = test system: C. glabrata T-985 (11-076); assay: microbe, parasite or virus in culture
From the text: as §1

C. glabrata TGL00054 = assay: microbe, parasite or virus in culture; settings: strain no. 19, TGL00054, parental CST109, FKS2 mutant
From the text: as §1

C. glabrata TGL00056 = assay: microbe, parasite or virus in culture; settings: strain no. 22, TGL00056, parental CST34, FKS mutant
From the text: as §1

C. glabrata TGL00065 = assay: microbe, parasite or virus in culture; settings: strain no. 27, TGL00065, FKS mutant
From the text: as §1

C. glabrata TGL00091 = assay: microbe, parasite or virus in culture; settings: strain no. 35, TGL00091, FKS mutant
From the text: as §1

C. glabrata TGL00107 = assay: microbe, parasite or virus in culture; settings: strain no. 23, TGL00107, parental CST34, FKS mutant
From the text: as §1

C. glabrata TGL00253 = assay: microbe, parasite or virus in culture; settings: strain no. 20, TGL00253, parental CST109, FKS2 mutant
From the text: as §1

C. glabrata TGL00256 = assay: microbe, parasite or virus in culture; settings: strain no. 24, TGL00256, parental CST34, FKS mutant
From the text: as §1

C. glabrata TGL00258 = assay: microbe, parasite or virus in culture; settings: strain no. 25, TGL00258, parental CST34, FKS mutant
From the text: as §1

C. glabrata TGL00263 = assay: microbe, parasite or virus in culture; settings: strain no. 28, TGL00263, parental CST78, FKS mutant
From the text: as §1

C. glabrata TGL00264 = assay: microbe, parasite or virus in culture; settings: strain no. 29, TGL00264, parental CST78, FKS mutant
From the text: as §1

C. glabrata TGL00265 = assay: microbe, parasite or virus in culture; settings: strain no. 30, TGL00265, parental CST78, FKS mutant
From the text: as §1

C. glabrata TGL00275 = assay: microbe, parasite or virus in culture; settings: strain no. 32, TGL00275, FKS mutant
From the text: as §1

C. glabrata TGL00277 = assay: microbe, parasite or virus in culture; settings: strain no. 33, TGL00277, parental EF1620, FKS mutant
From the text: as §1

C. glabrata TGL00291 = assay: microbe, parasite or virus in culture; settings: strain no. 36, TGL00291, parental BG2, FKS mutant
From the text: as §1

C. glabrata TGL00293 = assay: microbe, parasite or virus in culture; settings: strain no. 37, TGL00293, parental BG2, FKS mutant
From the text: as §1

C. glabrata TGL00294 = assay: microbe, parasite or virus in culture; settings: strain no. 38, TGL00294, parental BG2, FKS mutant
From the text: as §1

C. albicans ATCC 10231 = assay: MIC, broth double dilution; settings: strain no. 11, C. albicans ATCC 10231
From the text: as §1

C. albicans BWP17 = assay: MIC, broth double dilution
From the text: as §1

C. albicans SC5314 = assay: MIC, broth double dilution; settings: strain no. 1, C. albicans SC5314, WT
From the text: as §1

C. glabrata ATCC 15126 = assay: MIC, broth double dilution; settings: strain no. 41, C. glabrata ATCC 15126
From the text: as §1

[9] = test system: C. glabrata T-191 (11-331); assay: MIC, broth double dilution; settings: strain no. 43, T-191 (11-331), clinical isolate
From the text: as §1

[10] = test system: C. glabrata T-982 (11-181); assay: MIC, broth double dilution; settings: strain no. 46, T-982 (11-181), clinical isolate
From the text: as §1

Measured: MIC

CC[C@H](C)C[C@H](C)CCCCCCCCC(=O)N[C@H]1C[C@@H](O)[C@@H](NCCN)NC(=O)[C@@H]2[C@@H](O)CCN2C(=O)[C@H]([C@H](O)CCN)NC(=O)[C@H]([C@H](O)[C@@H](O)c2ccc(OCc3cn(CCCNc4ccc([N+](=O)[O-])c5nonc45)nn3)cc2)NC(=O)[C@@H]2C[C@@H](O)CN2C(=O)[C@H]([C@@H](C)O)NC1=O [Compound 2]
4 mg/L: C. glabrata CST78; strain no. 26, C. glabrata CST78 | [8]; strain no. 49, T-985 (11-076), clinical isolate | C. glabrata ATCC 15126
64 mg/L: [3] | [5] | C. glabrata TGL00256
1 mg/L: C. albicans CG72; strain no. 7, CG72, parental CAM, pKE1:GFP-YPT72 | C. albicans BWP17; strain no. 9, BWP17, parental RM1000 | C. albicans SC5314
>64 mg/L: [2] | [4] | [6] | [7] | C. glabrata TGL00054 | C. glabrata TGL00056 | C. glabrata TGL00065 | C. glabrata TGL00091 | C. glabrata TGL00107 | C. glabrata TGL00253 | C. glabrata TGL00258 | C. glabrata TGL00263 | C. glabrata TGL00264 | C. glabrata TGL00265 | C. glabrata TGL00275 | C. glabrata TGL00277 | C. glabrata TGL00291 | C. glabrata TGL00293 | C. glabrata TGL00294
32 mg/L: [1] | C. glabrata DPL1086
2 mg/L: C. albicans SN95; strain no. 8, SN95, parental RM1000 | C. albicans ATCC 10231 | [9] | [10]

CN(C)c1ccc2c(-c3ccc(C(=O)NCCCN=[N+]=[N-])cc3C(=O)[O-])c3ccc(=[N+](C)C)cc-3oc2c1 [Compound 5-TMR-azide]
>64 mg/L: C. albicans CG72 | [1] | [2] | C. albicans SN95 | [3] | [4] | [5] | [6] | [7] | C. glabrata CST78 | C. glabrata DPL1086 | [8] | C. glabrata TGL00054 | C. glabrata TGL00056 | C. glabrata TGL00065 | C. glabrata TGL00091 | C. glabrata TGL00107 | C. glabrata TGL00253 | C. glabrata TGL00256 | C. glabrata TGL00258 | C. glabrata TGL00263 | C. glabrata TGL00264 | C. glabrata TGL00265 | C. glabrata TGL00275 | C. glabrata TGL00277 | C. glabrata TGL00291 | C. glabrata TGL00293 | C. glabrata TGL00294 | C. albicans ATCC 10231 | C. albicans BWP17 | C. albicans SC5314 | C. glabrata ATCC 15126 | [9] | [10]
